The structures appear in SMILES notation. pIC50: −log10 of the molar value. A value given as a limit tells only on which side of the number the result lay.

The experiment deals with human childhood brain tumor cell lines (PFSK-1). The experiment is described as follows: Growth inhibitory activity against PFSK-1 cells (WST-8, Cell Counting Kit-8). In kind it is cell-based. The following applies: Homo sapiens, 72 h, 3 days incubation with test compound, WST-8 OD 450/630 nm, read-out: IC50 (concentration inhibiting 50% of the cell growth). The procedure, abridged: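 Cells seeded in RPMI 1640 with 10% FBS and preincubated 24 h at 37 °C, 5% CO2, then exposed to compound for 3 days. IC50 (nM) from growth relative to untreated control.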
On to `Cc1c(OCC(F)(F)CO)ccc(C2=NNC(=O)CC2C)c1O` (stereo not drawn) [Example 115, 6-[4-(2,2-difluoro-3-hydroxypropoxy)-2-hydroxy-3-methylphenyl]-5-methyl-4,5-dihydro-2H-pyridazin-3-one], for which the pIC50 is 8.23.

Consider `Cc1cc(C2=NNC(=O)C[C@H]2C)cc(Cl)c1OCCO` [Example 116, (5R)-(−)-6-[3-chloro-4-(2-hydroxyethoxy)-5-methylphenyl]-5-methyl-4,5-dihydro-2H-pyridazin-3-one], for which the pIC50 is 8.37.

On to `C[C@@H]1CC(=O)NN=C1c1cc(F)c(OCC(C)(C)O)c(F)c1` [Example 117, (5R)-(−)-6-[3,5-Difluoro-4-(2-hydroxy-2-methylpropoxy)phenyl]-5-methyl-4,5-dihydro-2H-pyridazin-3-one], for which the pIC50 was 8.52.

Take `C[C@@H]1CC(=O)NN=C1c1ccc(OCC(C)(C)O)c(Cl)c1F` [Example 118, (5R)-(−)-6-[3-chloro-2-fluoro-4-(2-hydroxy-2-methylpropoxy)phenyl]-5-methyl-4,5-dihydro-2H-pyridazin-3-one]: the pIC50 was above 9.00.

On to `C[C@@H]1CC(=O)NN=C1c1cc(F)c(OCC2(O)CC2)c(Cl)c1` [Example 119, (5R)-(−)-6-{3-chloro-5-fluoro-4-[(1-hydroxycyclopropyl)methoxy]phenyl}-5-methyl-4,5-dihydro-2H-pyridazin-3-one], for which the pIC50 is 8.54.

`Cc1c(OCC(F)(F)CO)ccc(C2=NNC(=O)C[C@H]2C)c1F` [Example 120, (5R)-(−)-6-[4-(2,2-difluoro-3-hydroxypropoxy)-2-fluoro-3-methylphenyl]-5-methyl-4,5-dihydro-2H-pyridazin-3-one]: the pIC50 is 8.62. Turning to `C[C@@H]1CC(=O)NN=C1c1cc(F)c(OCCCO)c(F)c1` [Example 121, (5R)-(−)-6-[3,5-Difluoro-4-(3-hydroxypropoxy)phenyl]-5-methyl-4,5-dihydro-2H-pyridazin-3-one], the pIC50 was 8.42. Take `C[C@@H]1CC(=O)NN=C1c1ccc(OCC(C)(C)CO)c(Cl)c1F` [Example 122, (5R)-(−)-6-[3-Chloro-2-fluoro-4-(3-hydroxy-2,2-dimethylpropoxy)phenyl]-5-methyl-4,5-dihydro-2H-pyridazin-3-one]: the pIC50 is 8.39. As for `C[C@@H]1CC(=O)NN=C1c1ccc(OCC2(O)CC2)c(F)c1F` [Example 123, (5R)-(−)-6-[2,3-Difluoro-4-[(1-hydroxycyclopropyl)methoxy]phenyl]-5-methyl-4,5-dihydro-2H-pyridazin-3-one], the figure is 8.48. For `C[C@@H]1CC(=O)NN=C1c1ccc(OCC(C)(C)O)c(F)c1F` [Example 124, (5R)-(−)-6-[2,3-difluoro-4-(2-hydroxy-2-methylpropoxy)phenyl]-5-methyl-4,5-dihydro-2H-pyridazin-3-one], the pIC50 is 8.64. In the case of `Cc1cc(C2=NNC(=O)C[C@H]2C)cc(F)c1OCC(C)(C)CO` [Example 125, (5R)-(−)-6-[3-fluoro-4-(3-hydroxy-2,2-dimethylpropoxy)-5-methylphenyl]-5-methyl-4,5-dihydro-2H-pyridazin-3-one], the pIC50 is 8.82. For the compound `C[C@@H]1CC(=O)NN=C1c1ccc(OCCO)c(Cl)c1F` [Example 126, (5R)-(−)-6-[3-Chloro-2-fluoro-4-(2-hydroxyethoxy)phenyl]-5-methyl-4,5-dihydro-2H-pyridazin-3-one], the pIC50 is 8.54. As to `C[C@@H]1CC(=O)NN=C1c1cc(Cl)c(OCC(C)(C)CO)c(Br)c1` [Example 127, (5R)-(−)-6-[3-bromo-5-chloro-4-(3-hydroxy-2,2-dimethylpropoxy)phenyl]-5-methyl-4,5-dihydro-2H-pyridazin-3-one], the pIC50 is above 9.00. For `Cc1cc(C2=NNC(=O)CC2C)c(O)c(Cl)c1OCC(C)(C)O` (stereo not drawn) [Example 129, 6-[3-Chloro-2-hydroxy-4-(2-hydroxy-2-methylpropoxy)-5-methylphenyl]-5-methyl-4,5-dihydro-2H-pyridazin-3-one], the pIC50 was 8.44. As for `Cc1c(O)c(C2=NNC(=O)CC2C)cc(Cl)c1OCC(C)(C)O` (stereo not drawn) [Example 130, 6-[5-Chloro-2-hydroxy-4-(2-hydroxy-2-methylpropoxy)-3-methylphenyl]-5-methyl-4,5-dihydro-2H-pyridazin-3-one], the pIC50 was 8.15.

On to `CC1CC(=O)NN=C1c1cc(F)c(OCC(C)(C)O)c(Cl)c1F` (stereo not drawn) [Example 131, 6-[3-chloro-2,5-difluoro-4-(2-hydroxy-2-methylpropoxy)phenyl]-5-methyl-4,5-dihydro-2H-pyridazin-3-one], for which the pIC50 was 9.00. As for `Cc1cc(C2=NNC(=O)CC2C)c(F)c(C)c1OCC(C)(C)O` (stereo not drawn) [Example 132, 6-[2-Fluoro-4-(2-hydroxy-2-methylpropoxy)-3,5-dimethylphenyl]-5-methyl-4,5-dihydro-2H-pyridazin-3-one], the figure is 8.52.

On to `C=Cc1c(OCC(C)(C)O)ccc(C2=NNC(=O)CC2C)c1F` (stereo not drawn) [Example 133, 6-[2-Fluoro-4-(2-hydroxy-2-methylpropoxy)-3-vinylphenyl]-5-methyl-4,5-dihydro-2H-pyridazin-3-one], for which the pIC50 was 8.47.

On to `CCc1c(OCC(C)(C)O)ccc(C2=NNC(=O)CC2C)c1F` (stereo not drawn) [Example 134, 6-[3-Ethyl-2-fluoro-4-(2-hydroxy-2-methylpropoxy)phenyl]-5-methyl-4,5-dihydro-2H-pyridazin-3-one], for which the pIC50 was 8.15. For `C=Cc1c(OCCO)ccc(C2=NNC(=O)CC2C)c1F` (stereo not drawn) [Example 135, 6-[2-Fluoro-4-(2-hydroxyethoxy)-3-vinylphenyl]-5-methyl-4,5-dihydro-2H-pyridazin-3-one], the pIC50 is 8.17. Consider `Cc1c(F)c(C2=NNC(=O)CC2C)cc(Cl)c1OCC(C)(C)CO` (stereo not drawn) [Example 136, 6-[5-Chloro-2-fluoro-4-(3-hydroxy-2,2-dimethylpropoxy)-3-methylphenyl]-5-methyl-4,5-dihydro-2H-pyridazin-3-one], for which the pIC50 is 8.28. For the compound `Cc1cc(C2=NNC(=O)CC2C)c(F)c(Cl)c1OCC(C)(C)CO` (stereo not drawn) [Example 137, 6-[3-chloro-2-fluoro-4-(3-hydroxy-2,2-dimethylpropoxy)-5-methylphenyl]-5-methyl-4,5-dihydro-2H-pyridazin-3-one], the pIC50 was above 9.00. Consider `Cc1cc(C2=NNC(=O)CC2C)c(F)c(C)c1OCC(C)(C)CO` (stereo not drawn) [Example 138, 6-[2-Fluoro-4-(3-hydroxy-2,2-dimethylpropoxy)-3,5-dimethylphenyl]-5-methyl-4,5-dihydro-2H-pyridazin-3-one], for which the pIC50 was 8.41. The figure for `CC1CC(=O)NN=C1c1cc(F)c(OCC(C)(C)CO)c(Cl)c1F` (stereo not drawn) [Example 139, 6-[3-Chloro-2,5-difluoro-4-(3-hydroxy-2,2-dimethylpropoxy)phenyl]-5-methyl-4,5-dihydro-2H-pyridazin-3-one] is 8.57; for `CC1CC(=O)NN=C1c1cc(F)c(OCCCO)c(Cl)c1F` (stereo not drawn) [Example 140, 6-[3-chloro-2,5-difluoro-4-(3-hydroxypropoxy)phenyl]-5-methyl-4,5-dihydro-2H-pyridazin-3-one] it is 8.70; for `Cc1cc(C2=NNC(=O)CC2C)c(F)c(C)c1OCCCO` (stereo not drawn) [Example 141, 6-[2-Fluoro-4-(3-hydroxypropoxy)-3,5-dimethylphenyl]-5-methyl-4,5-dihydro-2H-pyridazin-3-one] it is 8.34.

`Cc1cc(C2=NNC(=O)CC2C)cc(Cl)c1OCC(C)CO` (stereo not drawn) [Example 142, 6-[3-chloro-4-(3-hydroxy-2-methylpropoxy)-5-methylphenyl]-5-methyl-4,5-dihydro-2H-pyridazin-3-one]: the pIC50 was 9.00. Consider `Cc1cc(C2=NNC(=O)CC2C)cc(Cl)c1OCCC(C)O` (stereo not drawn) [Example 143, 6-[3-Chloro-4-(3-hydroxybutoxy)-5-methylphenyl]-5-methyl-4,5-dihydro-2H-pyridazin-3-one], for which the pIC50 was 8.16.

`Cc1cc(C2=NNC(=O)CC2C)cc(Cl)c1OCC1(CO)CC1` (stereo not drawn) [Example 144, 6-{3-Chloro-4-[1-(hydroxymethyl)cyclopropylmethoxy]-5-methylphenyl}-5-methyl-4,5-dihydro-2H-pyridazin-3-one]: the pIC50 is 8.38.

For `CC1CC(=O)NN=C1c1ccc(OCC2(CO)CC2)c(F)c1F` (stereo not drawn) [Example 145, 6-{2,3-Difluoro-4-[1-(hydroxymethyl)cyclopropylmethoxy]phenyl}-5-methyl-4,5-dihydro-2H-pyridazin-3-one], the pIC50 was 8.15. As for `CC1CC(=O)NN=C1c1ccc(OCC(C)(C)CCO)c(Cl)c1O` (stereo not drawn) [Example 146, 6-[3-chloro-2-hydroxy-4-(4-hydroxy-2,2-dimethylbutoxy)phenyl]-5-methyl-4,5-dihydro-2H-pyridazin-3-one], the figure is 8.17; as for `Cc1c(F)c(C2=NNC(=O)CC2C)cc(Cl)c1OCC(C)O` (stereo not drawn) [Example 147, 6-[5-Chloro-2-fluoro-4-(2-hydroxypropoxy)-3-methylphenyl]-5-methyl-4,5-dihydro-2H-pyridazin-3-one], 8.12. `Cc1cc(C2=NNC(=O)CC2C)c(F)c(Cl)c1OCC(C)O` (stereo not drawn) [Example 148, 6-[3-Chloro-2-fluoro-4-(2-hydroxypropoxy)-5-methylphenyl]-5-methyl-4,5-dihydro-2H-pyridazin-3-one]: the pIC50 was above 9.00. On to `CC(O)COc1c(F)cc(C2=NNC(=O)CC2C)c(F)c1Cl` (stereo not drawn) [Example 149, 6-[3-Chloro-2,5-difluoro-4-(2-hydroxypropoxy)phenyl]-5-methyl-4,5-dihydro-2H-pyridazin-3-one], for which the pIC50 was 8.44. Regarding `Cc1cc(C2=NNC(=O)CC2C)c(F)c(C)c1OC/C=C\CO` (stereo not drawn) [Example 150, 6-{2-Fluoro-4-[(Z)-4-hydroxy-2-butenyloxy]-3,5-dimethylphenyl}-5-methyl-4,5-dihydro-2H-pyridazin-3-one], the pIC50 is 8.43. Regarding `Cc1cc(C2=NNC(=O)CC2C)c(F)c(Cl)c1OC/C=C\CO` (stereo not drawn) [Example 151, 6-{3-Chloro-2-fluoro-4-[(Z)-4-hydroxy-2-butenyloxy]-5-methylphenyl}-5-methyl-4,5-dihydro-2H-pyridazin-3-one], the pIC50 was 8.89.
